# From US9750727B2 (priority 2010, dated 2017)
# Where two headings read alike, the source gives them in different places.
# Assays:
# M. bovis bovinus 8 [1] = assay type: in vivo, mice
# M. bovis bovinus 8 [2] = assay type: in vivo, mice; remark: listed apart in the source
# M. bovis bovinus 8 [3] = assay type: in vivo, mice; conditions: combination of the new treatment with the TB drug
# M. bovis bovinus 8 [4] = assay type: in vivo, rabbits; conditions: for Body weight ITE (%): 15 mg/kg
# [5] = in vivo; cited from earlier work
# M. tuberculosis Erdman = experiment: Double serial dilution, growth of drug-sensitive test strain; assay type: cell-based; parameters: key to Degree of mycobacterial growth: primary inhibition of mycobacterial growth (++); conditions: for Degree of mycobacterial growth: 10^6 cells/ml
# M. bovis bovinus 8 [6] = assay type: cell-based
# M. tuberculosis H37Rv = experiment: Double serial dilution, growth of drug-sensitive test strain; assay type: cell-based; parameters: key to Degree of mycobacterial growth: primary inhibition of mycobacterial growth (++)
# [7] = Embryo toxicity, teratogenicity and reproductive function; assay type: in vivo, animals
# [8] = test system: M. tuberculosis “Academia”; experiment: Double serial dilution, growth of drug-sensitive test strain; assay type: cell-based; parameters: key to Degree of mycobacterial growth: primary inhibition of mycobacterial growth (++)
# [9] = test system: gram-positive and gram-negative microorganisms; assay type: cell-based
# Stability during storage = assay type: physicochemical
# General toxicity = assay type: in vivo
# [10] = Allergenic, immunotoxic and mutagenic properties
# M. bovis bovinus 8 [11] = test system: M. bovis bovinus 8; parameters: species or system mice; conditions: mouse, in vivo
# [12] = test system: Mycobacteria tuberculosis; experiment: Tuberculostatic activity compared with the prototype drug; conditions: in comparison with the prototype drug
# [13] = TB drug combined with the new treatment (20 mg/kg, per os) vs TB drug monotherapy, mice, 42 days
# [14] = TB drug combined with the new treatment (20 mg/kg, per os) vs TB drug monotherapy, mice, 42 days of treatment
# [15] = new treatment in combination with the TB drug, compared to monotherapy with the new treatment alone
# [16] = rabbits, 15 mg/kg per os, vs infection control
# [17] = 3.125 μg/ml in medium, 10^6 cells/ml
smiles,measurement,setting,value
"NCC[C@H](O)C(=O)N[C@@H]1C[C@H](N)[C@@H](O[C@H]2O[C@H](CN)[C@@H](O)[C@H](O)[C@H]2O)[C@H](O)[C@H]1O[C@H]1O[C@H](CO)[C@@H](O)[C@H](N)[C@H]1O [Amycacin, amycacin]",Scored sum of area: Breathing lung tissue,"M. bovis bovinus 8 [1]; mouse, in vivo",17.7
same,Scored sum of area: Dense lymphocytic infiltrate,"M. bovis bovinus 8 [1]; mouse, in vivo",3.12
same,Scored sum of area: Desquamative pneumonia,"M. bovis bovinus 8 [1]; mouse, in vivo",2.94
same,Scored sum of area: Polymorpho cellular infiltrate,"M. bovis bovinus 8 [1]; mouse, in vivo",0
same,Scored sum of area: Total lung tissue,"M. bovis bovinus 8 [1]; mouse, in vivo",23.76
same,improvement of the indices of lung damage (morphological),"M. bovis bovinus 8 [1]; mouse, in vivo",2.56%
same,decrease in the coefficient of liver weight,"M. bovis bovinus 8 [2]; mouse, in vivo",34.6%
same,decrease in the index of lung damage,"M. bovis bovinus 8 [2]; mouse, in vivo",1.8%
same,"effect of combination on therapeutic effectiveness, in words","M. bovis bovinus 8 [2]; mouse, in vivo",increased the therapeutic effectiveness
same,increase in therapeutic effectiveness (average of indices of organ damage),"M. bovis bovinus 8 [2]; mouse, in vivo",11.34%
"CC[C@@H](CO)NCCN[C@@H](CC)CO [Ethambutol, ethambutol]",Scored sum of area: Breathing lung tissue,"M. bovis bovinus 8 [1]; mice, 42 days of treatment",9.78
same,Scored sum of area: Dense lymphocytic infiltrate,"M. bovis bovinus 8 [1]; mice, 42 days of treatment",6.8
same,Scored sum of area: Desquamative pneumonia,"M. bovis bovinus 8 [1]; mice, 42 days of treatment",6.93
same,Scored sum of area: Polymorpho cellular infiltrate,"M. bovis bovinus 8 [1]; mice, 42 days of treatment",0.27
same,Scored sum of area: Total lung tissue,"M. bovis bovinus 8 [1]; mice, 42 days of treatment",23.78
same,"therapeutic effectiveness of the combination, in words",M. bovis bovinus 8 [3],weak therapeutic effectiveness
same,decrease in CFU levels in the spleen,M. bovis bovinus 8 [2]; [13],33.3%
same,decrease in coefficient of spleen weight,M. bovis bovinus 8 [2]; [13],22.1%
same,decrease in the coefficient of liver weight,M. bovis bovinus 8 [2]; [13],8.9%
same,increase in the index of lung damage,M. bovis bovinus 8 [2]; [13],4.0%
same,increase in the index of lung weight,M. bovis bovinus 8 [2]; [13],3.1%
same,increase in therapeutic effectiveness (average of indices of organ damage),M. bovis bovinus 8 [2]; [14],11.44%
same,"effect of combination on therapeutic effectiveness, in words",M. bovis bovinus 8 [2]; [15],increased the therapeutic effectiveness
"NNC(=O)c1ccncc1 [Isoniazid, isonicotinic acid hydrazide]",Scored sum of area: Breathing lung tissue,"M. bovis bovinus 8 [1]; mice, 42 days of treatment",17.5
same,Scored sum of area: Dense lymphocytic infiltrate,"M. bovis bovinus 8 [1]; mice, 42 days of treatment",1.59
same,Scored sum of area: Desquamative pneumonia,"M. bovis bovinus 8 [1]; mice, 42 days of treatment",3.52
same,Scored sum of area: Polymorpho cellular infiltrate,"M. bovis bovinus 8 [1]; mice, 42 days of treatment",0.86
same,Scored sum of area: Total lung tissue,"M. bovis bovinus 8 [1]; mice, 42 days of treatment",23.47
same,Body weight % of initial,"M. bovis bovinus 8 [4]; rabbits, 15 mg/kg per os",−6.99%
same,Lethality % of initial number,"M. bovis bovinus 8 [4]; rabbits, 15 mg/kg per os",0%
same,Lethality ITE (%),M. bovis bovinus 8 [4]; [16],+100.0%
same,Body weight ITE (%),M. bovis bovinus 8 [4]; [16],+74.67%
same,Body weight ITE (%),"M. bovis bovinus 8 [4]; rabbits, 15 mg/kg per os, vs infection control, listed as isoniazid",74.67%
same,decrease in CFU levels in the spleen,M. bovis bovinus 8 [2]; [13],25%
same,decrease in the coefficient of liver weight,M. bovis bovinus 8 [2]; [13],3.6%
same,increase in therapeutic effectiveness (average of indices of organ damage),M. bovis bovinus 8 [2]; [14],13.9%
same,"effect of combination on therapeutic effectiveness, in words",M. bovis bovinus 8 [2]; [15],increased the therapeutic effectiveness
same,LD50,[5],150 mg/kg
CC1COc2c(N3CCN(C)CC3)c(F)cc3c(=O)c(C(=O)O)cn1c23 (centres unmarked) [Ofloxacin],Scored sum of area: Breathing lung tissue,"M. bovis bovinus 8 [1]; mice, 42 days of treatment",7.32
same,Scored sum of area: Dense lymphocytic infiltrate,"M. bovis bovinus 8 [1]; mice, 42 days of treatment",6.32
same,Scored sum of area: Desquamative pneumonia,"M. bovis bovinus 8 [1]; mice, 42 days of treatment",10.49
same,Scored sum of area: Polymorpho cellular infiltrate,"M. bovis bovinus 8 [1]; mice, 42 days of treatment",0.04
same,Scored sum of area: Total lung tissue,"M. bovis bovinus 8 [1]; mice, 42 days of treatment",24.17
same,"decrease in indices (of therapeutic effectiveness), range over indices",M. bovis bovinus 8 [2]; [13],4.65% to 11.9
same,increase in the index of lung damage,M. bovis bovinus 8 [2]; [13],2.6%
same,decrease in therapeutic effectiveness,M. bovis bovinus 8 [2]; [14],6.2%
"CO[C@H]1/C=C/O[C@@]2(C)Oc3c(C)c(O)c4c(c3C2=O)C2=NC3(CCN(CC(C)C)CC3)NC2=C(NC(=O)/C(C)=C\C=C\[C@H](C)[C@H](O)[C@@H](C)[C@@H](O)[C@@H](C)[C@H](OC(C)=O)[C@@H]1C)C4=O [Rifabutin, rifabutin]",Scored sum of area: Breathing lung tissue,"M. bovis bovinus 8 [1]; mice, 42 days of treatment",23.27
same,Scored sum of area: Dense lymphocytic infiltrate,"M. bovis bovinus 8 [1]; mice, 42 days of treatment",0.53
same,Scored sum of area: Desquamative pneumonia,"M. bovis bovinus 8 [1]; mice, 42 days of treatment",0.16
same,Scored sum of area: Polymorpho cellular infiltrate,"M. bovis bovinus 8 [1]; mice, 42 days of treatment",0
same,Scored sum of area: Total lung tissue,"M. bovis bovinus 8 [1]; mice, 42 days of treatment",23.96
same,decrease in coefficient of lung weight,M. bovis bovinus 8 [2]; [13],12.4%
same,decrease in coefficient of spleen weight,M. bovis bovinus 8 [2]; [13],20.6%
same,increase in the coefficient of liver weight,M. bovis bovinus 8 [2]; [13],0.4%
same,increase in the index of lung damage,M. bovis bovinus 8 [2]; [13],7.4%
same,increase in therapeutic effectiveness (average of indices of organ damage),M. bovis bovinus 8 [2]; [14],7.68%
same,"effect of combination on therapeutic effectiveness, in words",M. bovis bovinus 8 [2]; [15],increased the therapeutic effectiveness
"CO[C@H]1/C=C/O[C@@]2(C)Oc3c(C)c(O)c4c(O)c(c(/C=N/N5CCN(C)CC5)c(O)c4c3C2=O)NC(=O)/C(C)=C\C=C\[C@H](C)[C@H](O)[C@@H](C)[C@@H](O)[C@@H](C)[C@H](OC(C)=O)[C@@H]1C [Rifampicin, rifampicin]",Scored sum of area: Breathing lung tissue,"M. bovis bovinus 8 [1]; mice, 42 days of treatment",19.65
same,Scored sum of area: Desquamative pneumonia,"M. bovis bovinus 8 [1]; mice, 42 days of treatment",1.94
same,Scored sum of area: Polymorpho cellular infiltrate,"M. bovis bovinus 8 [1]; mice, 42 days of treatment",0
same,Scored sum of area: Total lung tissue,"M. bovis bovinus 8 [1]; mice, 42 days of treatment",23.96
same,decrease in coefficient of lung weight,M. bovis bovinus 8 [2]; [13],18.2%
same,decrease in coefficient of spleen weight,M. bovis bovinus 8 [2]; [13],34.6%
same,decrease in the coefficient of liver weight,M. bovis bovinus 8 [2]; [13],1.6%
same,increase in CFU levels,M. bovis bovinus 8 [2]; [13],6.19%
same,increase in therapeutic effectiveness (average of indices of organ damage),M. bovis bovinus 8 [2]; [14],9.66%
NC(=S)NN=Cc1ccncc1.[O-][Cl+3]([O-])([O-])O [new treatment],Degree of mycobacterial growth,M. tuberculosis Erdman; 0.19 μg/ml in medium,++
same,Degree of mycobacterial growth,M. tuberculosis Erdman; 0.39 μg/ml in medium,++
same,Degree of mycobacterial growth,M. tuberculosis Erdman; 0.78 μg/ml in medium,++
same,MIC,M. tuberculosis Erdman; M. tuberculosis Erdman,3.125 µg/mL
same,complete inhibition (MIC),M. bovis bovinus 8 [6],1.56 µg/mL
same,concentration of primary inhibition of mycobacterial growth (++),M. bovis bovinus 8 [6],0.19 µg/mL
same,Degree of mycobacterial growth,M. tuberculosis H37Rv; [17],++
same,MIC,M. tuberculosis H37Rv; M. tuberculosis H37RV,6.25 µg/mL
same,"dose with teratogenic effect (non life-threatening skeletal malformations, delay in ossification, edema, subcutaneous hemorrhage)","[7]; administered during organogenesis, five times the therapeutic dose",100 mg/kg
same,effect on the reproductive function and offspring development in animals,[7]; continued administration,no effect
same,alterations in placenta development and sex formation,[7]; in vivo,no alterations
same,embryo toxicity,[7]; mainly if administered during organogenesis,moderate embryo toxicity
same,Degree of mycobacterial growth,[8]; [17],++
same,MIC,[8]; M. tuberculosis “Academia”,6.25 µg/mL
same,Body weight % of initial,"M. bovis bovinus 8 [4]; rabbit, in vivo, 20 mg/kg",−7.13%
same,Lethality % of initial number,"M. bovis bovinus 8 [4]; rabbit, in vivo, 20 mg/kg",0%
same,Lethality ITE (%),"M. bovis bovinus 8 [4]; rabbit, in vivo, 20 mg/kg",+100.0%
same,effect on the growth of gram-positive and gram-negative microorganisms,[9],did not affect the growth
same,"time for which appearance, physical characteristics and biological properties are stable",Stability during storage,3 years
same,toxicity relative to the prototype drug (lower),General toxicity; in comparison with the prototype drug,2.4 times
same,damage to vital organs and systems,General toxicity; in vivo,neither a significant structural and functional damage to vital organs and systems
same,"toxicity, in words",General toxicity; in vivo,low toxic agent
same,allergenic properties,[10],no
same,immunotoxic properties,[10],no
same,mutagenic properties,[10],no
same,Body weight % of initial,M. bovis bovinus 8 [11]; 10 mg/kg,81.9%
same,Lethality %,M. bovis bovinus 8 [11]; 10 mg/kg,62.5%
same,Body weight % of initial,M. bovis bovinus 8 [11]; 20 mg/kg,94.5%
same,Lethality %,M. bovis bovinus 8 [11]; 20 mg/kg,25.0%
same,Body weight % of initial,M. bovis bovinus 8 [11]; 30 mg/kg,92.6%
same,Lethality %,M. bovis bovinus 8 [11]; 30 mg/kg,2.4%
same,tuberculostatic activity relative to the prototype drug (higher),[12],200 times
